Literature values, collected in article PMC9232612, “A phase 1b randomised controlled trial of a glucagon-like peptide-1 and glucagon receptor dual agonist IBI362 (LY3305677) in Chinese patients with type 2 diabetes” (Nature Communications, 2022).

Assays:
[1] = phase 2a, after 49 days of drug exposure; ref Parker VER et al. JCEM 2021;105(3):803-20; cited from earlier work
Protocol: page 3: doses of IBI362 (4.5 and 6 mg). It would be helpful to provide the time course of the GI adverse events to ascertain whether they occurred during the up-titration phase and whether the symptoms persisted during the 12 weeks. Only one participant in the IBI362 4.5 mg cohort withdrew from the study due to decreased appetite. The cardiovascular safety profile of IBI362 reported in this manuscript raised some safety concerns and will be addressed in greater detail herein. Cardiovascular disorders were reported in 5 participants receiving IBI362 compared with one in each of the placebo and ...

[2] = system: patients with T2D; details: daily-dose, Japanese patients with T2D; cited from earlier work
Excerpt: Several GLP-1 and glucagon dual agonists have shown either glycaemic control or weight loss benefit in various settings. […] SAR425899, a […] GLP-1 and glucagon receptor dual agonist, achieved placebo-adjusted mean HbA1c level reductions up to 0.75% in patients with overweight or obesity and T2D[11].

Q: What does the source list for Cotadutide?
A: mean change in diastolic BP [1]: +1.16 mm Hg; mean change in systolic BP [1]: -2.8 mm Hg; mean increase in heart rate [1]: +7.1 BPM; reduction in body weight from baseline to day 50 (up to) [2]: up to 3.3%
